Data set [1] is described as follows: Octanol-buffer distribution (log D7.4). The data set is classed as physicochemical. To be noted: for logD / logD at 1 min / logD at 10 min / logD at 30 min: 1-octanol/PBS; for logD: pH 7.4, pooled mixing times 1, 10, 30 min; for logD at 1 min: mixing time 1 min; for logD at 1 min / logD at 10 min / logD at 30 min: octanol/PBS pH 7.4; for logD at 10 min: mixing time 10 min; for logD at 30 min: mixing time 30 min. As to the method: Phosphate-buffered saline (PBS, pH 7.4) and 1-octanol were mutually saturated by vigorous stirring at room temperature for 18 h, and then separated. Drug solutions of 0.1 mg mL^-1 in PBS were prepared, and 500 μL aliquots were added to 1.5 mL micro-centrifuge tubes with an equal volume of 1-octanol. Three samples were vortex-mixed for 1, 10 and 30 minutes respectively, then centrifuged at room temperature (12,000 rpm for 15 minutes). Aliquots of the upper octanol layer were removed by pipette. A disposable syringe was inserted while bubbling air through the upper layer, an aliquot of the lower PBS layer withdrawn, and the needle removed before transferring. Samples were stored in glass sample vials at −20 °C until analysis by LC-MS-MS.
Drug concentrations (ng mL^-1) refer to the free base, and were measured by liquid chromatography-tandem mass spectrometry (LC-MS-MS) as described previously. Briefly, samples were shaken with 3 volumes of methanol and centrifuged at 3000 g. Aliquots of the supernatants were diluted with 5 volumes of water containing an appropriate internal standard. Extracts from in vitro and in vivo experiments were analyzed by multiple reaction monitoring on an API3000 or API4000 LC-MS-MS system with electrospray ion source, controlled and analyzed using the Analyst software package (Applied Biosystems, Foster City, CA). Chromatography was conducted on a Sprite Armor C18 analytical column (20 × 2.1 mm, 10 μm particle size, Analytical Sales and Products, Pompton Plains, NJ) with a 0.5 μm PEEK guard filter. Compounds were eluted with a gradient from 2% to 95% acetonitrile in water, both containing 0.1% formic acid. Compounds were detected in positive ion mode, tuned to the mass transition with the largest intensity. Analyte concentrations were determined by comparison of analyte:internal standard peak area ratios to those of standards prepared in the appropriate matrices.

Data set [2] is described as follows: Brain homogenate binding (unbound fraction by ultracentrifugation). The data set is classed as in vitro ADME. As to the method:
Unbound fractions in brain homogenate and plasma were determined by ultracentrifugation as described previously. Briefly, drug-spiked matrices (5 μM drug in plasma or brain homogenate) were centrifuged at 600,000 g for 5 h at 37 °C (plasma) or 5 °C (brain). Aliquots of the middle (water) layer were added to an equal volume of blank matrix and extracted with 5 volumes of acetonitrile containing internal standard. Aliquots of the original spiked matrix were mixed with an equal volume of blank matrix and 2 volumes of plasma ultrafiltrate (plasma) or phosphate-buffered saline (tissue) and extracted with 10 volumes of acetonitrile. Extracts were centrifuged and analyzed by LC-MS-MS. Fraction unbound was calculated from the ratio of concentration in the water layer to that in the original spiked matrix, corrected for dilution as described previously. Based on previous results for basic drugs, in vivo free fraction in brain was assumed to be at least 3-fold lower than the in vitro free fraction in brain homogenate.

Details of data set [3]: method as in PMID 17049114. The note with it: mice, i.p.; cited from earlier work.
The conditions of data set [4]: cited from earlier work.
Another data set is described as follows: Water solubility. The note with it: distilled water, thermodynamic from solid, 25 °C, salt tested. The data set is classed as physicochemical. As to the method: Distilled water was added slowly by microsyringe to 10–15 mg of drug in a glass vial, swirling until no solid was visible.
Another data set relates to μ opioid receptor. Also on record: method as in PMID 1326932. To be noted: after subcutaneous administration; cited from earlier work.
On the set-up of data set [5]: method as in earlier work. To be noted: preliminary reports; cited from earlier work.
A further data set relates to κ opioid receptor. Also on record: method as in PMID 15464069. The note with it: intragastric administration; cited from earlier work.
The mark [6] stands for this setting: 5 μM drug, mean, n = 3, corrected for dilution, read-out: Fraction unbound, Brain homogenate.
[7] abbreviates: Brain homogenate, read-out: % free (uncorrected).

Results on three molecules are retold here after publication PMC3411462, “Long-acting κ opioid antagonists nor-BNI, GNTI and JDTic: pharmacokinetics in mice and lipophilicity” (BMC Pharmacology, 2012).

Read-outs that look alike come from different tables or passages of the source. Marks after values point to notes of the source that are not given here. A value given as a limit tells only on which side of the number the result lay.

In data set [1], `N=C(N)Nc1ccc2[nH]c3c(c2c1)C[C@@]1(O)[C@H]2Cc4ccc(O)c5c4[C@@]1(CCN2CC1CC1)[C@H]3O5` [GNTI, 5’-guanidinonaltrindole] returned a logD of -0.08, a logD at 1 min of -0.07, a logD at 10 min of -0.11 and a logD at 30 min of -0.0527. Also, in data set [1] (mean, n = 3), the “Log10D7.4 octanol:buffer (pH 7.4)” value is listed as -0.1. For the same molecule, the fraction unbound at 5 h, 5 μM in data set [2] (setting [6]) was found to be 0.07. Also, the fraction unbound at 5 h, 5 μM in data set [2] (setting [7]) is 0.19. Moreover, in data set [3], the “Sedation, duration” value is listed as “less than 3 hours” and the “Sedation, time to maximum” value was no more than 20 min. Also, in data set [4] (25 °C, ref Tocris product information sheet), the Water solubility is on record as >100^a mmol L^-1. Besides, the Water solubility result in data set [4] (ref Tocris product information sheet (Table 1)) is reported as “at least 100 mM”.
For `Oc1ccc2c3c1O[C@H]1c4[nH]c5c(c4C[C@@]4(O)[C@@H](C2)N(CC2CC2)CC[C@]314)C[C@@]1(O)[C@H]2Cc3ccc(O)c4c3[C@@]1(CCN2CC1CC1)[C@H]5O4` [nor-BNI, norbinaltorphimine], the solubility in the data set “Water solubility” was greater than 45 mM. Further, in data set [1], the logD was determined as 1.53, the logD at 1 min stood at 1.43, the logD at 10 min turned out to be 1.59 and the logD at 30 min was found to be 1.57. Moreover, the fraction unbound at 5 h, 5 μM in data set [2] (setting [6]) stood at 0.12. In addition, in data set [2] (setting [7]), the fraction unbound at 5 h, 5 μM was 0.28. The fraction unbound at 5 h, 5 μM in data set [2] (mouse, assumed at least 3-fold lower than in homogenate, read-out: Fu,brain (in vivo est.)) was less than 0.04. In addition, in the data set on μ opioid receptor, the “μ antagonism, duration” value was “approximately 4 hours” and the “μ antagonism, time of peak” value is on record as “approximately 30 minutes”. The “Detection in mouse brain after administration” value in data set [5] was “up to 21 days”.
Regarding `CC(C)[C@@H](CN1CC[C@@](C)(c2cccc(O)c2)[C@@H](C)C1)NC(=O)[C@H]1Cc2ccc(O)cc2CN1` [JDTic, (3R)-7-Hydroxy-N-((1S)-1-{[(3R,4R)-4-(3-hydroxyphenyl)-3,4-dimethyl-1-piperidinyl]methyl}-2-methylpropyl)-1,2,3,4-tetrahydro-3-isoquinolinecarboxamide], the solubility in “Water solubility” is greater than 45 mM. In data set [1], this molecule came in with a logD of 1.84, a logD at 1 min of 1.84, a logD at 10 min of 1.9 and a logD at 30 min of 1.77. The fraction unbound at 5 h, 5 μM in data set [2] (setting [6]) was 0.07. The fraction unbound at 5 h, 5 μM in data set [2] (setting [7]) worked out at 0.18. Further, the fraction unbound at 5 h, 5 μM in data set [2] (assumed at least 3-fold lower than in homogenate, read-out: Fu,brain (in vivo est.)) was less than 0.0233. For the same molecule, in the data set with κ opioid receptor, the “Delay in onset of κ antagonism” value was “greater than 6 hours”.
